# Reference: patent EP4741383A1, “COMPOUND AND USE THEREOF AS ANTI-CANCER DRUG” (Tyligand Bioscience (Shanghai) Limited, priority 2023, dated 2025)
# Molecular target: T1, SHP2 enzyme (catalytic domain, amino acid sequence 224-528) (Homo sapiens, UniProt Q06124)
# T1 construct: purchased GenScript
# T1 sequence (Q06124 224-528): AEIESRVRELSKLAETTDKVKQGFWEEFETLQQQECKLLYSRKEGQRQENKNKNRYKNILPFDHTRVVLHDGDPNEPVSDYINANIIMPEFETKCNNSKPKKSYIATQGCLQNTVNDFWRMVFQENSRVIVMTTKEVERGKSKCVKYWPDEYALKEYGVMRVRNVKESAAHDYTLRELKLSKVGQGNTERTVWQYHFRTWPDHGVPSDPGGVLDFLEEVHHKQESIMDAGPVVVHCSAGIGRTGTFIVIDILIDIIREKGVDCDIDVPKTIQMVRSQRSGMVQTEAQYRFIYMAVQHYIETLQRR
# Assay: SHP2 enzyme inhibition assay (DiFMUP substrate, fluorescence)
# Format: biochemical
# Conditions: not given
# Experimental: This experiment evaluates the inhibitory effect of the test compounds on SHP2 enzyme activity by detecting the reaction between the human recombinant protein SHP2 enzyme and the substrate.
# The stock solutions of the reaction buffer components were thawed and mixed homogeneously at room temperature, to prepare the reaction buffer (55 mM HEPES pH = 7.2 (Sigma, Cat. No. #PHR1428), 100 mM NaCl (Beyotime, Cat. No. #ST374, 5 M solution), 0.5 mM EDTA (Beyotime, Cat. No. #ST066), 1 mM DL-Dithiothreitol (DTT) (Sigma, Cat. No. #D9779), 0.002% BSA (Solarbio, Cat. No. #A8010), 0.001% Brij35 (Brij® L23 solution (Brij35) (Sigma, Cat. No. #B4184)). The SHP2 enzyme (catalytic domain, amino acid sequence 224-528, expressed and purified by GenScript) was thawed slowly on ice. 1 µL of this solution (1.37 mg/mL) was added to 386 µL of the reaction buffer to dilute it to 100 nM. Then, 120 µL of the 100 nM SHP2 enzyme solution was added to 2880 µL of reaction buffer to prepare a 4 nM SHP2 enzyme working solution. The test compounds and the specific inhibitor of SHP2 (11a-1, used as a positive control, Zeng, L. et al., J. Med. Chem. 2014, 57, 6594-6609) were prepared as 10 mM DMSO solutions. 10 µL of the 10 mM compound solution was mixed with 20 µL of DMSO solution, and then serially diluted 3-fold, resulting in 10 concentrations. 1 µL of the serially diluted solution was mixed with 99 µL of reaction buffer to obtain a 10-fold diluted compound working solution.
# A 96-well black half-area microplate (Greiner, catalog #675076) was used. 25 µL of 4 nM SHP2 enzyme working solution and 5 µL of 10x compound working solution were added to each well and incubated at room temperature for 30 minutes. 15 µL of DiFMUP substrate (Thermo Fisher Scientific, catalog #D6567) was added to 2985 µL of reaction buffer to prepare a 50 µM substrate working solution. After incubation of the compounds and SHP2 enzyme, 20 µL of the 50 µM substrate working solution was added to each well and incubated at room temperature for 5 minutes. The plate was then read on a multi-mode microplate reader (BioTek, Synergy H1) at 340 nm/450 nm fluorescence.
# Data were analyzed using GraphPad Prism 9.0 software. A non-linear S-curve regression dose-response-inhibition equation was used to fit the data and generate the dose-response curve, from which the IC50 value was calculated. [formula]
row,IC50,SMILES
1,87 nM,O=C(Nc1ccc(-c2cc3cc(F)c(-c4nnn[nH]4)cc3n2C2CCC2)cc1)C(=O)Nc1ccc(N2CC(CCO)C2)cc1 [Example 9]

# Same assay, conditions: SHP2 catalytic domain, DiFMUP substrate, 30 min pre-incubation; read-out: S HP2 I C50
row,IC50,SMILES
1,130 nM,O=C(Nc1ccc(-c2cc3cc(F)c(-c4nnn[nH]4)cc3n2C2CCC2)cc1)C(=O)Nc1ccc(N2CC(CO)C2)cc1 [Example 8]
2,30 nM,CC1(C#N)CCN(c2ccc(NC(=O)C(=O)Nc3ccc(-c4cc5cc(F)c(-c6nnn[nH]6)cc5n4C4CCC4)cc3)cc2)C1 (stereo not shown) [Example 11]
3,183 nM,CC(O)C1CCN(c2ccc(NC(=O)C(=O)Nc3ccc(-c4cc5cc(F)c(-c6nnn[nH]6)cc5n4C4CCC4)cc3)cc2)C1 (stereo not shown) [Example 15]
4,74 nM,CC1CN(c2ccc(NC(=O)C(=O)Nc3ccc(-c4cc5cc(F)c(-c6nnn[nH]6)cc5n4C4CCC4)cc3)cc2)CC1CO (stereo not shown) [Example 18]
5,152 nM,CC1(C)CN(c2ccc(NC(=O)C(=O)Nc3ccc(-c4cc5cc(F)c(-c6nnn[nH]6)cc5n4C4CCC4)cc3)cc2)CC1CO (stereo not shown) [Example 19]
6,68 nM,CC1(n2c(-c3ccc(NC(=O)C(=O)Nc4ccc(N5CCC(C6COC6)CC5)cc4)cc3)cc3cc(F)c(-c4nnn[nH]4)cc32)CCC1 [Example 21]
7,38 nM,N#CC1CCN(c2ccc(NC(=O)C(=O)Nc3ccc(-c4cc5cc(F)c(-c6nnn[nH]6)cc5n4C4CCC4)cc3)cc2)CC1 [Example 22]
8,271 nM,CC1(n2c(-c3ccc(NC(=O)C(=O)Nc4ccc(N5CCC(CO)CC5)cc4)cc3)cc3cc(F)c(-c4nnn[nH]4)cc32)CCC1 [Example 24]
9,92 nM,CC(C)(O)CCC1CCN(c2ccc(NC(=O)C(=O)Nc3ccc(-c4cc5cc(F)c(-c6nnn[nH]6)cc5n4C4CCC4)cc3)cc2)CC1 [Example 28]
10,72 nM,CC(C)(O)C1CCN(c2ccc(NC(=O)C(=O)Nc3ccc(-c4cc5cc(F)c(-c6nnn[nH]6)cc5n4C4(C)CCC4)cc3)cc2)CC1 [Example 34]
11,174 nM,CC(C)(O)C1CCN(c2ccc(NC(=O)C(=O)Nc3ccc(-c4cc5cc(F)c(-c6nnn[nH]6)cc5n4C4(C)CC4)cc3)cc2)CC1 [Example 35]
12,44 nM,CC(C)(O)C1CCN(c2ccc(NC(=O)C(=O)Nc3ccc(-c4cc5cc(F)c(-c6nnn[nH]6)cc5n4CC4CC4)cc3)cc2)CC1 [Example 37]
13,112 nM,CC(C)(O)C1CCN(c2ccc(NC(=O)C(=O)Nc3ccc(-c4cc5cc(F)c(-c6nnn[nH]6)cc5n4CC4CCC4)cc3)cc2)CC1 [Example 38]
14,43 nM,CC(C)(O)C1CCN(c2ccc(NC(=O)C(=O)Nc3ccc(-c4cc5cc(F)c(-c6nnn[nH]6)cc5n4CC(F)(F)F)cc3)cc2)CC1 [Example 39]
15,63 nM,CC1(CO)CCN(c2ccc(NC(=O)C(=O)Nc3ccc(-c4cc5cc(F)c(-c6nnn[nH]6)cc5n4C4(C)CCC4)cc3)cc2)CC1 [Example 41]
16,179 nM,CC1(CO)CCN(c2ccc(NC(=O)C(=O)Nc3ccc(-c4cc5cc(F)c(-c6nnn[nH]6)cc5n4C4(C)CC4)cc3)cc2)CC1 [Example 42]
17,52 nM,CCC1(CO)CCN(c2ccc(NC(=O)C(=O)Nc3ccc(-c4cc5cc(F)c(-c6nnn[nH]6)cc5n4C4CCC4)cc3)cc2)CC1 [Example 43]
18,57 nM,COCC1(CO)CCN(c2ccc(NC(=O)C(=O)Nc3ccc(-c4cc5cc(F)c(-c6nnn[nH]6)cc5n4C4CCC4)cc3)cc2)CC1 [Example 44]

row,IC50,SMILES
1,45 nM,CC1CN(c2ccc(NC(=O)C(=O)Nc3ccc(-c4cc5cc(F)c(-c6nnn[nH]6)cc5n4C4CCC4)cc3)cc2)CCC1CO (stereo not shown) [Example 46]
2,50 nM,CCC1CN(c2ccc(NC(=O)C(=O)Nc3ccc(-c4cc5cc(F)c(-c6nnn[nH]6)cc5n4C4CCC4)cc3)cc2)CCO1 (stereo not shown) [Example 48]
3,113 nM,O=C(Nc1ccc(-c2cc3cc(F)c(-c4nnn[nH]4)cc3n2C2CCC2)cc1)C(=O)Nc1ccc(N2CCOC3(CC3)C2)cc1 [Example 50]
4,102 nM,O=C(Nc1ccc(C2=CCOCC2)cc1)C(=O)Nc1ccc(-c2cc3cc(F)c(-c4nnn[nH]4)cc3n2C2CCC2)cc1 [Example 52]
5,64 nM,O=C(Nc1ccc(-c2cc3cc(F)c(-c4nnn[nH]4)cc3n2C2CCC2)cc1)C(=O)Nc1ccc(N2CC3(COC3)C2)cc1 [Example 53]
6,69 nM,O=C(Nc1ccc(-c2cc3cc(F)c(-c4nnn[nH]4)cc3n2C2CCC2)cc1)C(=O)Nc1ccc(N2CC3(CCOC3)C2)cc1 [Example 54]
7,74 nM,CC1(n2c(-c3ccc(NC(=O)C(=O)Nc4ccc(N5CC6(CCCOC6)C5)cc4)cc3)cc3cc(F)c(-c4nnn[nH]4)cc32)CCC1 [Example 56]
8,64 nM,O=C(Nc1ccc(-c2cc3cc(F)c(-c4nnn[nH]4)cc3n2C2CCC2)cc1)C(=O)Nc1ccc(N2CCC3(CCCO3)C2)cc1 (stereo not shown) [Example 60]
9,38 nM,O=C(Nc1ccc(-c2cc3cc(F)c(-c4nnn[nH]4)cc3n2C2CCC2)cc1)C(=O)Nc1ccc(N2CCC3(CC2)COC3)cc1 [Example 63]
10,88 nM,O=C(Nc1ccc(N2CCC3(CCOC3)CC2)cc1)C(=O)NC1CC=C(c2cc3cc(F)c(-c4nnn[nH]4)cc3n2C2CC2)CC1 (stereo not shown) [Example 64]
11,198 nM,O=C(Nc1ccc(N2CCC3(CCOC3)CC2)cc1)C(=O)NC12CC(c3cc4cc(F)c(-c5nnn[nH]5)cc4n3C3CCC3)(C1)C2 [Example 65]
12,291 nM,O=C(Nc1ccc(N2CCC3(CCOC3)CC2)cc1)C(=O)NC1CCN(c2cc3cc(F)c(-c4nnn[nH]4)cc3n2C2CCC2)CC1 [Example 66]
13,50 nM,O=C(Nc1ccc(-c2cc3cc(F)c(-c4nnn[nH]4)cc3n2C23CC(C2)C3)cc1)C(=O)Nc1ccc(N2CCC3(CCOC3)CC2)cc1 [Example 71]
14,46 nM,O=C(Nc1ccc(-c2cc3cc(F)c(-c4nnn[nH]4)cc3n2CC2CC2)cc1)C(=O)Nc1ccc(N2CCC3(CCOC3)CC2)cc1 [Example 72]
15,48 nM,O=C(Nc1ccc(-c2cc3cc(F)c(-c4nnn[nH]4)cc3n2C2CCC2)cc1)C(=O)Nc1ccc(N2CCC3(CCCCO3)CC2)cc1 [Example 73]
16,74 nM,O=C(Nc1ccc(-c2cc3cc(F)c(-c4nnn[nH]4)cc3n2C2CCC2)cc1)C(=O)Nc1ccc(N2CC3(C2)CC(O)(C(F)(F)F)C3)cc1 [Example 78]
17,108 nM,O=C(Nc1ccc(-c2cc3cc(F)c(-c4nnn[nH]4)cc3n2C2CCC2)cc1)C(=O)Nc1ccc(N2CC3(CCC(O)C3)C2)cc1 (stereo not shown) [Example 79]

row,SMILES,IC50
1,O=C(Nc1ccc(-c2ccsc2)cc1)C(=O)Nc1ccc(-c2cc3cc(O)c(-c4nnn[nH]4)cc3n2C2CCC2)cc1 [Example 3],278 nM
2,O=C(Nc1ccc(-c2ccsc2)cc1)C(=O)Nc1ccc(-c2cc3cc(Cl)c(-c4nnn[nH]4)cc3n2C2CCC2)cc1 [Example 5],105 nM
3,O=C(Nc1ccc(-c2cc3cc(F)c(-c4nnn[nH]4)cc3n2C2CCC2)cc1)C(=O)Nc1ccc(N2CCC(F)(CO)CC2)cc1 [Example 45],55 nM
4,O=C(Nc1ccc(-c2cc3cc(F)c(-c4nnn[nH]4)cc3n2C2CCC2)cc1)C(=O)Nc1ccc(N2CC3CC2CO3)cc1 (stereo not shown) [Example 49],133 nM
5,O=C(Nc1ccc(C2=CCOC2)cc1)C(=O)Nc1ccc(-c2cc3cc(F)c(-c4nnn[nH]4)cc3n2C2CCC2)cc1 [Example 51],57 nM
6,CC1(O)CCC2(CN(c3ccc(NC(=O)C(=O)Nc4ccc(-c5cc6cc(F)c(-c7nnn[nH]7)cc6n5C5(C)CCC5)cc4)cc3)C2)C1 (stereo not shown) [Example 80],36 nM

# Same assay, conditions: relative to 11a-1, IC50 = 0.108 µM
row,SHP2 IC50 times lower than control compound 11a-1,SMILES
1,3-4 times,CC1(C#N)CCN(c2ccc(NC(=O)C(=O)Nc3ccc(-c4cc5cc(F)c(-c6nnn[nH]6)cc5n4C4CCC4)cc3)cc2)C1 (stereo not shown) [Example 11]
2,3-4 times,N#CC1CCN(c2ccc(NC(=O)C(=O)Nc3ccc(-c4cc5cc(F)c(-c6nnn[nH]6)cc5n4C4CCC4)cc3)cc2)CC1 [Example 22]
3,3-4 times,O=C(Nc1ccc(-c2cc3cc(F)c(-c4nnn[nH]4)cc3n2C2CCC2)cc1)C(=O)Nc1ccc(N2CCC3(CC2)COC3)cc1 [Example 63]

row,SMILES,SHP2 IC50 times lower than control compound 11a-1
1,CC1(O)CCC2(CN(c3ccc(NC(=O)C(=O)Nc4ccc(-c5cc6cc(F)c(-c7nnn[nH]7)cc6n5C5(C)CCC5)cc4)cc3)C2)C1 (stereo not shown) [Example 80],3-4 times
